Test results reported in US5011828A, “Immunostimulating guanine derivatives, compositions and methods” (priority 1988, dated 1991).
“And” between values parts separate entries of the source, which are not always exact repeats. Identical values can stand only once.

Assays:
[1] = test system: SJL splenocytes (irradiated CBA/CaJ splenocyte stimulators); assay: T cell proliferation in mixed leukocyte cultures, SJL splenocytes; type: cell-based, mouse; conditions: responder +, stimulator +, 10^-3 M
Excerpt: In evaluating the effect of a guanosine derivative on alloantigen-induced proliferation, it is imperative to minimize the simultaneous mitogenic response of B cells to contact with a guanosine derivative. Spleen cells from SJL mice (whose B cells are hyporesponsive to the mitogenic effect of a guanosine derivative, but not to its adjuvant activity) were used as responder cells in two studies. Those responder cells were stimulated with irradiated allogenic cells (from CBA/CaJ mice) in the presence of no added nucleoside, incremental amounts of a guanosine derivative of the invention, 7M8oGuo, or with another guanosine derivative, 8MGuo, used as a positive control.
(§1) ^1 Plus signs (+) are utilized to indicate the presence of the
material of the column heading in the culture medium, whereas minus signs
(-) are utilized to show absence of such a material from the culture
(§2) ^3 Allogeneic cells used to costimulate proliferation, after exposure
(§3) T Helper Cell Activation. 1.5×10^5 viable spleen cells from SJL mice or CBA/CaJ mouse thymocytes were cultured with or without an equal number of irradiated (2500 rads) spleen cells from CBA/CaJ or BDFl mice respectively, in 0.2 ml of culture medium in the presence of incremental concentrations of the exemplary 7,8-disubstituted guanine derivatives. The lymphocyte culture medium utilized was that described before, and was further supplemented with 2-mercaptoethanol to a final concentration of 50 uM. Thymocyte cultures also contained 10 percent (v/v) of a concanavalin A-conditioned rat spleen cell medium sold under the name Rat T Cell Monoclone by Collaborative Research. Following 90 hours of culture, one microCurie [^3 H]TdR per culture was admixed, and the resulting culture was maintained for a further six hour time period.
(§4) The cultures were harvested with a Brandel cell harvester (M24V, Biological Research and Development Laboratories, Rockville, Md.) onto glass fiber filter disks. Filter disks were transferred to plastic scintillation vials, covered with liquid scintillation cocktail, and counted in a Beckman LS5700 liquid scintillation counter.

[2] = test system: CBA/CaJ thymocytes (irradiated BDF1 splenocyte stimulators); assay: T cell proliferation in mixed leukocyte cultures, CBA/CaJ thymocytes; type: cell-based, mouse; conditions: Study 3, responder +, stimulator +
Excerpt: A third and fourth study utilized thymocytes from CBA/CaJ mice as the stimulated (responder) cells, and irradiated BDFl mouse spleen cells as the stimulator cells. Two guanosine derivatives of the present invention, 7a8MGuo and 7a8oGuo, were used for these studies, with 8MGuo serving as positive control for one of the studies.
However, in the presence of interleukin-2 (IL-2), those cells develop responsiveness to allogeneic stimulation. The present studies utilizing thymocytes were therefore carried out in the presence of a co-stimulating amount of IL-2.
as §1, §2, §3, §4

[3] = test system: murine lymphocytes (sheep red blood cells as antigen); assay: Antigen-specific adjuvanticity: direct anti-SRBC plaque forming cells, murine system; type: cell-based, mouse; conditions: for Peak Direct anti-SRBC PFC/Culture / adjuvanticity, in words: murine system; for Peak Direct anti-SRBC PFC/Culture: at peak concentration; for Average 1 Log Plaque Values: Table 9, murine, * = single study
Excerpt: ^1 Adjuvanticities against sheep red blood cells [SRBC] measured in
direct plaqueforming cells per culture of lymphocytes from the mouse
strains shown. Details of the procedure are provided in the Materials and
Methods Section. Standard errors from the enumerated mean values are show
A large number of comparisons of adjuvanticity using human and murine lymphocytes as the source of leukocytes have been carried out using compounds of the present invention, as well as with new compounds excluded from the present invention. […] Interstudy comparisons are however useful for showing trends and large differences. Tables 5, 6 and 7, hereinafter, provide exemplary data from such studies in which only the activity at the peak concentration is shown for each compound and the results for the controls are omitted.
Lymphocyte cultures. The serum-containing culture medium water prepared to contain the following per 100 milliliters: 91.9 milliliters RPMI 1640 (Flow Laboratories, Inc., Rockville, Md.), 0.1 milliliters of 100×glutamine, 1.0 milliliter of 100×sodium pyruvate, 1 0 milliliter of 50×nonessential amino acids, 1.0 milliliter of water containing 10^4 units of penicillin G and 10^4 micrograms of streptomycin, and 5.0 milliliters of a supportive lot of fetal calf serum (FCS). These ingredients were admixed to apparent homogeneity. Spleen cell suspensions and populations enriched for splenic B cells were prepared as described in Goodman et al., J. Immunol., 121:1905 (1978).
For evaluation of the primary humoral immune response to sheep erythrocytes (SRBC), 5×10^6 to 10^7 murine spleen cells were cultured in 1.0 milliliter of 5% FCS-containing medium for 4 or 5 days in the presence and absence of immunogen. Cells were incubated in culture trays (Costar, Cambridge, Mass.) at 37° C. in a humidified atmosphere of 10% CO2 in air using tissue culture boxes (CBS Scientific, Del Mar, Calif.) that were rocked at a frequency of 7 cycles per minute. Pooled SRBC are available from the Colorado Serum Co., Denver Colo.
(§5) Assay of plaque forming cells (PFC). PFC secreting antibodies against SRBC were evaluated after 4 or 5 days of culture using a modification of the hemolytic plaque assay of Jerne and Nordin, Science, 140:405 (1963). The cells were brought up in complete medium before plaquing; they were plaqued in standard low Mr agarose (Bio-Rad Laboratories, Richmond Calif.), and were incubated in SRBC-absorbed guinea pig complement for one hour after a 1.5 hour incubation without complement.

[4] = test system: murine spleen cells; assay: Mitogenicity: [3H]TdR uptake, murine system; type: cell-based, mouse
[5] = test system: human peripheral blood lymphocytes (sheep red blood cells as antigen); assay: Antigen-specific adjuvanticity: direct anti-SRBC plaque forming cells, human system; type: cell-based; conditions: for Average 1 Log Plaque Values: Table 9, human, * = single study
Experimental: ^1 Studies were carried in a manner similar to those of Table 1,
except that a human lymphocyte preparation was used.
The results shown in Table 7, below, were obtained similarly to those discussed above, but using human lymphocytes. Some of those studies utilized lymphocytes from more than one individual, and are therefore reported with multiple entries.
Human peripheral blood lymphocytes (PBL) were prepared from normal heparinized venous blood by Ficoll-diatrizoate density gradient centrifugation. PBL were depleted of suppressor T cells bearing the histamine type 2 receptor by adhering them to the surfaces of histamine-rabbit serum albumin-coated plastic petri dishes (Cell-ect No. 2 kit; Seragen, Boston, Mass.) and by recovering the nonadherent cells by panning as described by Wysocki and Sato, Proc. Natl. Acad. Sci. USA, 75:2844 (1978) and modified by Cavagnaro and Osband, Biotechniques, January/February:30 (1983).
The tissue culture medium employed in these studies for human lymphocytes was prepared as follows: One hundred milliliters (ml) contained 87.9 ml RPMI 1640 (Flow Laboratories, Rockville, Md.), 0.1 ml 100×glutamine,1.0 ml of 1.0 M HEPES buffer (Microbilogical Associates, Betheseda, Md.), 1.0 ml of water containing 10^4 U of penicillin G and 10^4 micrograms of streptomycin, and 10 ml of fresh autologous heat-inactivatedplasma. For evaluation of the primary humoral immune response to SRBC, lymphoid cells prepared as above were cultured at a density of 2×10^6 /ml in a volume of 1.0 ml containing 5×10^6 SRBC as antigen (Colorado Serum Co., Denver, Colo.) together with IL-2 (a partially purified preparation of human IL-2 that was free of interferon-gamma activity was obtained from Electro-Nucleonics, Inc., Silver Spring, Md.) and the guanine nucleoside derivative.
as §5

[6] = Table 7, later studies, single preparation

Compound | Direct Anti-SRBC PFC/Culture ([3]; Table 1, C57BL/6J, 3 × 10^-4 M) | Direct Anti-SRBC PFC/Culture ([3]; Table 1, CBA/CaJ, 3 × 10^-4 M) | Direct Anti-SRBC PFC/Culture ([3]; Table 1, CBA/CaJ, 10^-4 M) | [3H] TdR Uptake ([4]; Table 2, 10^-3 M) | [3H] TdR Uptake ([4]; Table 2, 10^-4 M) | Direct Anti-SRBC PFC/Culture ([3]; Table 1, CBA/CaJ, 10^-3 M) | Direct Anti-SRBC PFC/Culture ([3]; Table 8, 1 × 10^-5 M) | Average 1 Log Plaque Values [3] | Peak Direct anti-SRBC PFC/Culture [5, 6] | Peak Direct anti-SRBC PFC/Culture ([3]; Table 5) | further results
Nc1nc2c(nc(S)n2[C@@H]2O[C@H](CO)[C@@H](O)[C@H]2O)c(=O)[nH]1 [8MGuo, 8-mercaptoguanosine, reference compound] | 11,000 ± 140 PFC/Culture | 527 ± 25 PFC/Culture and 782 ± 123 PFC/Culture | 813 ± 129 PFC/Culture | – | – | – | – | – | – | – | [3H] TdR Uptake ([1]; Study 1): 28,100 ± 2700 counts per minute; [3H] TdR Uptake ([1]; Study 2): 30,800 ± 1300 counts per minute; [3H] TdR Uptake ([2]; 10^-4 M): 13,800 ± 1000 counts per minute; [3H] TdR Uptake ([2]; 10^-5 M): 15,600 ± 1000 counts per minute; Peak Direct anti-SRBC PFC/Culture ([3]; Table 6): 527 ± 25 PFC/Culture
C=CCSc1nc2c(=O)[nH]c(N)nc2n1[C@@H]1O[C@H](CO)[C@@H](O)[C@H]1O [compound 22300, 8-(2-propenylmercapto)guanosine] | – | 870 ± 70 PFC/Culture | 420 ± 105 PFC/Culture | 16,400 ± 1130 cpm/culture | 2700 ± 130 cpm/culture | 490 ± 133 PFC/Culture | – | – | – | – | adjuvanticity, in words [3]: about equal adjuvanticity to that of 8MGuo
Nc1nc2c(nc(SCC=Cc3ccccc3)n2[C@@H]2O[C@H](CO)[C@@H](O)[C@H]2O)c(=O)[nH]1 [compound 22359, 8-(Cinnamylmercapto)guanosine] | 2620 ± 100 PFC/Culture | 157 ± 7 PFC/Culture | 123 ± 21 PFC/Culture | 1700 ± 280 cpm/culture | 1600 ± 90 cpm/culture | 653 ± 52 PFC/Culture | – | – | – | – | [3H] TdR Uptake ([4]; Table 2, 3 × 10^-4 M): 1300 ± 80 cpm/culture; Direct Anti-SRBC PFC/Culture ([3]; Table 1, C57BL/6J, 10^-3 M): 3110 ± 350 PFC/Culture
C=CCn1c(=S)n([C@@H]2O[C@H](COC(C)=O)[C@@H](OC(C)=O)[C@H]2OC(C)=O)c2nc(N)[nH]c(=O)c21 [compound 22360, 7-(2-Propenyl)-8-thioxo-2',3',5'-triacetylguanosine] | – | – | – | – | – | – | 1176 PFC/Culture | 53,695 ± 28,444 per micromole | – | – | Peak Direct anti-SRBC PFC/Culture ([5]; Table 7, second group, person a): 925 PFC/Culture; Peak Direct anti-SRBC PFC/Culture ([5]; Table 7, second group, person b): 6008 PFC/Culture; Peak Direct anti-SRBC PFC/Culture ([5]; Table 7, second group, person c): 5050 PFC/Culture; Average 1 Log Plaque Values [5]: 38,508 ± 26,802 per micromole; Peak Direct anti-SRBC PFC/Culture ([3]; Table 6): 743 ± 48 PFC/Culture
CC=CCSc1nc2c(=O)[nH]c(N)nc2n1[C@@H]1O[C@H](CO)[C@@H](O)[C@H]1O [compound 22435, 8-(2-Butenylmercapto)guanosine] | 9130 ± 1110 PFC/Culture | 582 ± 52 PFC/Culture | 247 ± 38 PFC/Culture | 11,200 ± 202 cpm/culture | 4500 ± 120 cpm/culture | 607 ± 57 PFC/Culture | – | – | – | – | [3H] TdR Uptake ([4]; Table 2, 3 × 10^-4 M): 8800 ± 200 cpm/culture; Direct Anti-SRBC PFC/Culture ([3]; Table 1, C57BL/6J, 10^-3 M): 12,080 ± 470 PFC/Culture; adjuvanticity, in words [3]: greater than that of the longer 8-cinnamyl derivative (22359), but less than that of the 8-mercapto compound (8MGuo)
Nc1nc2c(c(=O)[nH]1)n(CC=Cc1ccccc1)c(=O)n2[C@@H]1O[C@H](CO)[C@@H](O)[C@H]1O [compound 22827, 7-[(3-Phenyl)-2-propenyl]-8-oxoguanosine] | – | – | – | – | – | – | – | – | 2577 ± 300 PFC/Culture | 1357 ± 226 PFC/Culture | adjuvanticity higher / more active than comparison compound of U.S. Pat. No. 4,643,992 ([3]; murine system (Table 5), vs 7m8oGuo or compounds of that patent): more than 100%
C=CCn1c(=[Se])n([C@@H]2O[C@H](CO)[C@@H](O)[C@H]2O)c2nc(N)[nH]c(=O)c21 [compound 23369, 7-(2-Propenyl)-8-selenoxoguanosine] | – | – | – | – | – | – | – | – | 2204 ± 370 PFC/Culture | 2425 ± 229 PFC/Culture | –
CCn1c(=O)n([C@@H]2O[C@H](CO)[C@@H](O)[C@H]2O)c2nc(N)[nH]c(=O)c21 [compound 23643, 7-Ethyl-8-oxoguanosine] | – | – | – | – | – | – | 270 PFC/Culture | – | 9045 ± 310 PFC/Culture | – | [3H] TdR Uptake ([4]; Table 4, 3 × 10^-4 M): 48,690 ± 1120 cpm/culture; [3H] TdR Uptake ([4]; Table 4, 10^-3 M): 34,160 ± 780 cpm/culture; [3H] TdR Uptake ([4]; Table 4, 10^-4 M): 37,490 ± 540 cpm/culture; peak concentration lower than comparison compound ([3]; murine system (Table 5), vs 8-BrGuo): 1.5 log units
CCCCn1c(=O)n([C@@H]2O[C@H](CO)[C@@H](O)[C@H]2O)c2nc(N)[nH]c(=O)c21 [compound 23644, 7-Butyl-8-oxoguanosine] | – | – | – | – | – | – | 900 PFC/Culture | 118,886 ± 80,092 per micromole | – | 1058 ± 154 PFC/Culture | Average 1 Log Plaque Values [5]: 52,397 per micromole; peak adjuvanticity values greater as compared to 7m8oGuo ([5]; human system (Table 3)): about 100%; [3H] TdR Uptake ([4]; Table 4, 3 × 10^-4 M): 41,180 ± 410 cpm/culture; [3H] TdR Uptake ([4]; Table 4, 10^-3 M): 33,220 ± 1330 cpm/culture; [3H] TdR Uptake ([4]; Table 4, 10^-4 M): 30,720 ± 1030 cpm/culture
CC=CCn1c(=O)n([C@@H]2O[C@H](CO)[C@@H](O)[C@H]2O)c2nc(N)[nH]c(=O)c21 [compound 23679, 7-(2-Butenyl)-8-oxoguanosine] | – | – | – | – | – | – | 612 PFC/Culture | 52,332 per micromole | 3129 ± 252 PFC/Culture | – | –
